According to patent US20230119254A1, “SYNERGISTIC AND TARGETING COMPOSITIONS FOR TREATMENT OF ARTERIAL AND VENOUS THROMBOSIS” (AstraZeneca AB, priority 2020, published 2023):

How the values were obtained:
arterial thrombosis = experiment: Electrical injury model (EIM) of arterial thrombosis in rabbits; assay type: in vivo, rabbit
Procedure: Rabbits were randomized into the following eleven groups with the treatments initiated 30 min before electrical injury.
Electrical injury generated occlusion in 60% of the rabbits treated with saline within 2 h. Average thrombosis weight was 7.8 mg.

[1] = tested on: thrombin generation in human platelet rich plasma; experiment: Thrombin generation by calibrated automated thrombography (CAT) in ADP-activated human PRP; assay type: cell-based; conditions: 20 uM ADP-activated human platelets, equal molar concentrations
Procedure: Shown are thrombograms of nanomolar thrombin that were generated in human platelet rich plasma activated with […].
Thrombin generation in citrated human platelet rich plasma (PRP) was quantified by calibrated automated thrombography (CAT) using the Thrombinoscope system (Synapse), according to methods developed by Hemker et al. Aliquots of PRP were incubated with agents for 15 min at room temperature, and then for 5 min at 37° C. in wells of 96-well plates. Thrombin generation was initiated by addition of 0.5 pM tissue factor and CaCl2 to 16.7 mM and monitored in a microtiter plate fluorometer (Fluoroskan Ascent, Thermo Electron Corp., Vantaa, Finland). Thrombograms (nM thrombin generated vs. time) were generated using the Thrombinoscope software, as were key thrombin generation parameters: lag time to onset of thrombin generation (min), peak thrombin concentration (nM), time to peak thrombin (min), and endogenous thrombin potential (ETP; integrated area under the thrombogram curve).
The effects of APT102, annexin V, APT102+annexin V, and APT402 at equal molar concentrations on thrombin generation from 20 uM ADP-activated human platelets were compared using CAT assays (FIG. 3). […] These features were mimicked by APT402.

[2] = comparison value for annexin V; cited from earlier work
[3] = rabbit EIM, group doses of the 2nd table

COC(=O)[C@H](c1ccccc1Cl)N1CCc2sccc2C1 [clopidogrel, Clopidogrel, reference compound]
bleeding time (BT) (arterial thrombosis; rabbit, in vivo): prolonged

CC[C@H](C)[C@H](NC(=O)[C@H](CCC(=O)O)NC(=O)[C@H](CCC(=O)O)NC(=O)[C@H](Cc1ccccc1)NC(=O)[C@H](CC(=O)O)NC(=O)CNC(=O)[C@H](CC(N)=O)NC(=O)CNC(=O)CNC(=O)CNC(=O)CNC(=O)[C@@H]1CCCN1C(=O)[C@H](CCCNC(=N)N)NC(=O)[C@@H]1CCCN1C(=O)[C@H](N)Cc1ccccc1)C(=O)N1CCC[C@H]1C(=O)N[C@@H](CCC(=O)O)C(=O)N[C@@H](CCC(=O)O)C(=O)N[C@@H](Cc1ccc(O)cc1)C(=O)N[C@@H](CC(C)C)C(=O)O [bivalirudin, Bivalirudin, reference compound]
partial thromboplastin time (arterial thrombosis; [3]): increased | prothrombin time (arterial thrombosis; [3]): increased | bleeding time (BT) (arterial thrombosis; rabbit EIM, group doses of the 2nd table, BT measurement ceiling 5 min): prolonged

CCCSc1nc(N[C@@H]2C[C@H]2c2ccc(F)c(F)c2)c2nnn([C@@H]3C[C@H](OCCO)[C@@H](O)[C@H]3O)c2n1 [ticagrelor, reference compound]
occlusion within 2 h (arterial thrombosis; rabbit EIM, ticagrelor 10 mg/kg oral, bivalirudin 5 mg/kg IV bolus then 5 mg/kg/h): completely prevented occlusion | bleeding time (BT) (arterial thrombosis; rabbit, in vivo): prolonged | partial thromboplastin time (arterial thrombosis; rabbit, in vivo): increased

annexin V: protein that binds phosphatidyl serine on activated platelets in competition with prothrombinase complex
peak thrombin concentration [1]: modestly decreasing | time to peak thrombin [1]: significantly increased | distribution half-life [2]: 5 min | elimination half-life [2]: 20 min
